The assay deals with T1, Carbonic anhydrase (Saccharomyces cerevisiae S288c, UniProt P53615).
T1 sequence (P53615 whole entry): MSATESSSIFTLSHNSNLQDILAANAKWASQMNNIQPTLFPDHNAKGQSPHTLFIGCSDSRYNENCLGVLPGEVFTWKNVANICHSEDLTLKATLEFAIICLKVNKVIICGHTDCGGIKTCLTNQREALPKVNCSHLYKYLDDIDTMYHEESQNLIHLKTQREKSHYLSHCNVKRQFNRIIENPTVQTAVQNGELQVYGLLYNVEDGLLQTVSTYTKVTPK
Description: Inhibition of Saccharomyces cerevisiae recombinant CA expressed in Escherichia coli by stopped-flow CO2 hydrase assay
Regarding `Nc1nnc(S(N)(=O)=O)s1`, affinity was put at a Ki of 447 nM.
On to `Nc1ccc(S(=O)(=O)NCc2ccc(S(N)(=O)=O)cc2)cc1`, for which the Ki (in general, a dissociation constant, usually derived from enzyme kinetics or from competition with a known ligand) is 166 nM.
Molecule `Nc1cc(Cl)c(S(N)(=O)=O)cc1S(N)(=O)=O` showed a Ki of 169 nM.
Regarding `Nc1ccc(S(N)(=O)=O)cc1I`, the affinity corresponds to a Ki of 976 nM.
As for `Nc1ccc(S(=O)(=O)Nc2nnc(S(N)(=O)=O)s2)cc1`, the figure is 124 nM.
`NS(=O)(=O)c1nnc(-c2ccccc2Cl)s1` yielded an inhibition constant (Ki) of 565 nM. This Ki is about 4.6-fold higher than that of the molecule before.
`Nc1nccc(Nc2ccc(S(N)(=O)=O)cc2)n1`: the affinity corresponds to a Ki of 15.1 nM.
The molecule `Nc1ccc(S(N)(=O)=O)cc1Br` displayed a Ki of 248 nM.
In turn, `NS(=O)(=O)c1ccc(CCO)cc1` showed a Ki of 7540 nM.
As for `Nc1ccc(S(N)(=O)=O)cc1F`, the figure is 389 nM; as for `NS(=O)(=O)c1ccc(CO)cc1`, 8970 nM.
With `NCCc1ccc(S(N)(=O)=O)cc1`, the affinity, expressed as Ki, was 163 nM.
Turning to `Nc1ccc(S(N)(=O)=O)cc1Cl`, the affinity, expressed as Ki, was 457 nM. This Ki is about 2.8-fold higher than that of the molecule before.
In turn, `Nc1ccc(S(=O)(=O)NCCc2ccc(S(N)(=O)=O)cc2)cc1` came in with a Ki of 154 nM.
The same measure for `NS(=O)(=O)c1ccc(S(=O)(=O)Nc2cccc3c(Cl)c[nH]c23)cc1`: 133 nM; for `Nc1cc(C(F)(F)F)c(S(N)(=O)=O)cc1S(N)(=O)=O` [2,4-DISULFAMYLTRIFLUOROMETHYLANILINE]: 223 nM.
With `NS(=O)(=O)c1nnc(NS(=O)(=O)c2ccccc2)s1` [BENZOLAMIDE], the Ki came out at 111 nM.
The same measure for `CCN[C@H]1CN(CCCOC)S(=O)(=O)c2sc(S(N)(=O)=O)cc21` [BRINZOLAMIDE]: 114 nM.
As for `NS(=O)(=O)c1ccc(C(=O)O)cc1` [CARZENIDE], the figure is 14500 nM.
`Cc1ccc(-c2cc(C(F)(F)F)nn2-c2ccc(S(N)(=O)=O)cc2)cc1` [CELECOXIB] yielded an inhibition constant (Ki) of 108 nM.
`NCc1ccc(S(N)(=O)=O)cc1` [MAFENIDE] registered an inhibition constant (Ki) of 433 nM.
`Cc1ccc(S(N)(=O)=O)cc1` [P-TOLUENESULFONAMIDE]: the affinity corresponds to a Ki of 16100 nM.
For the molecule `O=C1NS(=O)(=O)c2ccccc21` [SACCHARIN], the affinity corresponds to a Ki of 12500 nM. This Ki and that of the molecule before are within 1.5-fold of each other.
With `Nc1ccc(S(N)(=O)=O)cc1` [SULFANILAMIDE], affinity was put at a Ki of 18500 nM.
With `CC1(C)O[C@@H]2[C@@H](CO[C@@]3(COS(N)(=O)=O)OC(C)(C)O[C@@H]23)O1` [TOPIRAMATE], the Ki amounted to 110 nM.

For the origin of these results see ChEMBL document CHEMBL1143347, “Carbonic anhydrase inhibitors: inhibition of the beta-class enzyme from the yeast Saccharomyces cerevisiae with sulfonamides and sulfamates” (Bioorg Med Chem, 2009).
